Results published in ChEMBL document CHEMBL6182942, “Discovery of a Selective, Novel TGF-βR1 Inhibitor GFH018 for the Treatment of Solid Tumors” (J Med Chem, 2025).
pIC50: −log10 of the molar value. Values after ≈ are worked out from the molar mass of the structure shown.

Assays:
[1] = Clearance in Beagle dog at 1 mg/kg, iv by LC-MS/MS analysis; assay type: ADME, organism-based, Canis lupus familiaris; details: in vivo
[2] = Drug metabolism in dog liver microsomes; assay type: ADME, Canis lupus familiaris, Microsome
[3] = Mutagenicity in Salmonella typhimurium TA100 in presence of liver S9 fraction by Ames test; assay type: toxicity, subcellular; details: salmonella enterica subsp. enterica serovar typhimurium
[4] = Intrinsic clearance in rat hepatocytes at 1 uM measured after 90 mins by LC-MS/MS analysis; assay type: ADME, cell-based, Hepatocyte; details: read-out: CLH
MDR1 = test: Efflux ratio of apparent permeability in dog MDCK-MDR1 cells at 2 uM measured over 150 mins by LC-MS/MS analysis; assay type: ADME, cell-based, Canis lupus familiaris
[5] = Cmax in CD-1 mouse at 75 mg/kg, po via gavage by LC-MS/MS analysis; assay type: ADME, organism-based; details: in vivo
Mus musculus = test: In vivo inhibition of TGFbetaR1 in mouse H22 cell implanted BALB/c mouse assessed as reduction in Smad phosphorylation at 15 to 50 mg/kg, po administered twice daily for 11 days measured 1 to 12 hrs post-last dose by immunoblotting analysis; assay type: functional, organism-based; details: dose lower […], dose upper 50.0 mg/kg, time 11.0 day
[6] = Lipophilicity, log D of the compound; assay type: physicochemical; details: octanol/water
[7] = Kinetic solubility of the compound in pH 7.4 aqueous buffer; assay type: physicochemical; details: read-out: Kinetic_solubility
[8] = Oral bioavailability in Sprague-Dawley rat at 30 mg/kg administered via gavage by LC-MS/MS analysis; assay type: ADME, organism-based; details: in vivo
NIH3T3 = test: Antiproliferative activity against mouse NIH/3T3 cells by celltitter-glo assay; assay type: functional, cell-based
[9] = AUC (0 to last) in Sprague-Dawley rat at 30 mg/kg, po administered via gavage by LC-MS/MS analysis; assay type: ADME, organism-based; details: in vivo
[10] = biological target: Tyrosine-protein kinase Lck (Homo sapiens) (UniProt P06239); test: Inhibition of LCK (unknown origin) assessed as residual activity at 1 uM relative to control
H22 [11] = test: Antitumor activity against mouse H22 cells implanted in BALB/c mouse assessed as tumor growth inhibition at 15 mg/kg, po administered twice daily for 11 days and measured 3 times per week during compound dosing relative to control; assay type: functional; details: H22, 264 h, time 11 day, read-out: TGI
[12] = Half life in Sprague-Dawley rat at 30 mg/kg, po administered via gavage by LC-MS/MS analysis; assay type: ADME, organism-based; details: in vivo
Cytochrome P450 2D6 = Cytochrome P450 2D6 (Homo sapiens, UniProt P10635); test: Inhibition of CYP2D6 in human liver microsomes using dextromethorphan as substrate preincubated for 10 mins followed by NADPH regeneration system addition and measured after 20 mins by LC-MS/MS analysis; assay type: ADME, Microsome
H22 [13] = test: Antitumor activity against mouse H22 cells implanted in BALB/c mouse assessed as tumor growth inhibition at 50 mg/kg, po administered twice daily for 11 days and measured 3 times per week during compound dosing relative to control; assay type: functional; details: H22, 264 h, time 11 day, read-out: TGI
[14] = Drug metabolism in human hepatocytes; assay type: ADME, cell-based, Hepatocyte
[15] = biological target: TRAF2 and NCK-interacting protein kinase (Homo sapiens) (UniProt Q9UKE5); test: Inhibition of TNIK (unknown origin) assessed as residual activity at 1 uM relative to control
CT26 = test: Synergistic antitumor activity against mouse CT26 cells implanted in BALB/c mouse assessed as tumor growth inhibition at 50 mg/kg, po administered twice daily in presence of antimouse-PD-L1 antibody; assay type: functional; details: read-out: TGI
[16] = Apparent permeability across apical to basolateral side in dog MDCK-MDR1 cells at 2 uM measured over 150 mins by LC-MS/MS analysis; assay type: ADME, cell-based, Canis lupus familiaris
[17] = Drug metabolism in monkey liver microsomes; assay type: ADME, Macaca mulatta, Microsome; details: rhesus monkey
[18] = Toxicity in mouse CT26 cell implanted BALB/c mouse assessed as change in body weight at 50 mg/kg, po administered twice daily in presence of antimouse-PD-L1 antibody; assay type: organism-based; details: in vivo
[19] = Mutagenicity in Salmonella typhimurium TA98 by Ames test; assay type: toxicity; details: salmonella enterica subsp. enterica serovar typhimurium
[20] = Drug metabolism in dog hepatocytes; assay type: ADME, cell-based, Canis lupus familiaris, Hepatocyte
[21] = Metabolic stability in mouse liver microsomes assessed as parent compound remaining at 1 uM preincubated for 5 mins followed by NADPH addition by LC-MS/MS analysis; assay type: ADME, Microsome; details: read-out: Stability
[22] = Protein binding in Sprague-Dawley rat plasma at 0.2 to 10 uM measured after 4 hrs by equilibrium dialysis based LC-MS/MS analysis; assay type: ADME, cell-free; details: dose 0.2-10 µM, read-out: PPB (converted)
[23] = Drug metabolism in human liver microsomes; assay type: ADME, Microsome

Cytochrome P450 2D6, sequence (P10635 whole entry): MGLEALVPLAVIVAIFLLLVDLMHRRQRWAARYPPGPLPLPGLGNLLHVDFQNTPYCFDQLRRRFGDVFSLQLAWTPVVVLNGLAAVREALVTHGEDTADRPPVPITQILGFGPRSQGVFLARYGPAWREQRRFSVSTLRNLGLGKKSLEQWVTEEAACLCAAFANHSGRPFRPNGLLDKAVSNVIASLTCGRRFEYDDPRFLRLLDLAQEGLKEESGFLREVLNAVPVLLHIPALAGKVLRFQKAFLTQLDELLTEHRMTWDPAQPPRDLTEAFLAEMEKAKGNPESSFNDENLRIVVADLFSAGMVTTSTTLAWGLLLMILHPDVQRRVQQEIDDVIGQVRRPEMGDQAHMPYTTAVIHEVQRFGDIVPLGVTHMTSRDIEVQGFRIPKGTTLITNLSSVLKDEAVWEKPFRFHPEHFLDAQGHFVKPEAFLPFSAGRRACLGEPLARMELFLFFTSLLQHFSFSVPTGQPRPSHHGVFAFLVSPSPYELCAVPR
TRAF2 and NCK-interacting protein kinase (Homo sapiens), sequence (Q9UKE5 whole entry, looked up): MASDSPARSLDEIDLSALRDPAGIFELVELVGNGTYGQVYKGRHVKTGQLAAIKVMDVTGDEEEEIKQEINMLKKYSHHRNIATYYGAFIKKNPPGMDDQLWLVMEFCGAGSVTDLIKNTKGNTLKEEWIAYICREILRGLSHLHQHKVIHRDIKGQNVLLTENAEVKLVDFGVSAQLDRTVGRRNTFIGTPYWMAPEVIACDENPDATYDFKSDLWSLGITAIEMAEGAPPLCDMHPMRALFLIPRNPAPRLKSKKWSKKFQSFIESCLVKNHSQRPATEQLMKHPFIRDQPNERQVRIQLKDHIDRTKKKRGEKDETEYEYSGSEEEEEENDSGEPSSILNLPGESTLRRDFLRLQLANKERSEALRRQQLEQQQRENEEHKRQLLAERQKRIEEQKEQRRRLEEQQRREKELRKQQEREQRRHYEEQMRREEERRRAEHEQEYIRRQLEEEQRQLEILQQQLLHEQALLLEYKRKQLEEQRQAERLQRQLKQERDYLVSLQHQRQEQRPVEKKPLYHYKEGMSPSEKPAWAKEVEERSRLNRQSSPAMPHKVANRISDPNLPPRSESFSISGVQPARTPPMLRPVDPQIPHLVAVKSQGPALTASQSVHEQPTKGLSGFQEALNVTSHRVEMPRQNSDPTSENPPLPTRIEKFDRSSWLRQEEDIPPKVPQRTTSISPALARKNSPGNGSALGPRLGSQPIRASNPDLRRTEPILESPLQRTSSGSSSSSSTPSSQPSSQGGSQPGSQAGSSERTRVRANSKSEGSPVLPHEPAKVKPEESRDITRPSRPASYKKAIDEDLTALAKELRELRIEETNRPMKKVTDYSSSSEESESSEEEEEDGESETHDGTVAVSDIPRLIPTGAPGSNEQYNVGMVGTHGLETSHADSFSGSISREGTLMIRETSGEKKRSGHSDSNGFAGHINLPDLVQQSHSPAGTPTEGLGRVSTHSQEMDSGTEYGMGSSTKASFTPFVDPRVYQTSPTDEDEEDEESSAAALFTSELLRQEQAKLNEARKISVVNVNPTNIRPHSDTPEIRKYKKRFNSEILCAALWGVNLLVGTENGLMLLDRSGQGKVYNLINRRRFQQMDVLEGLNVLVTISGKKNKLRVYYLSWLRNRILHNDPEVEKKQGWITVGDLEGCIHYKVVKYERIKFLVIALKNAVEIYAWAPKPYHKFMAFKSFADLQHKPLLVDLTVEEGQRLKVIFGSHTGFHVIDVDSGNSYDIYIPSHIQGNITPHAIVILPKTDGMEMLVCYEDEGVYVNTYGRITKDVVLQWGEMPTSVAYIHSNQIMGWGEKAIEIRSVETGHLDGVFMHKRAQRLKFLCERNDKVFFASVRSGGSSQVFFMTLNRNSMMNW
Tyrosine-protein kinase Lck (Homo sapiens), sequence (P06239 2-509 limits assumed): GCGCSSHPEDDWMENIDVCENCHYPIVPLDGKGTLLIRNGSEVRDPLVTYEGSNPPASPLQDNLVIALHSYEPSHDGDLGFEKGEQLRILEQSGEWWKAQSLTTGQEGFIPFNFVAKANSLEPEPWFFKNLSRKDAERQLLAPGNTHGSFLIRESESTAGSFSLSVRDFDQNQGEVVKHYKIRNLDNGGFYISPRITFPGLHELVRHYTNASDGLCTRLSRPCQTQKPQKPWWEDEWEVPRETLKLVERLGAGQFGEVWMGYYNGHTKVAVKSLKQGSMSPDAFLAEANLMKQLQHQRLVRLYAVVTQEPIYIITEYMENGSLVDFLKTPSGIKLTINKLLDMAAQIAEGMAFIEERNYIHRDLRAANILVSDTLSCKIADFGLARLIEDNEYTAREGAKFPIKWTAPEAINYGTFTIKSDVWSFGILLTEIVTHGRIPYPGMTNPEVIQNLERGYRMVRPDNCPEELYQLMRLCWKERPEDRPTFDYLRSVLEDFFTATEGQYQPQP

Cc1cccc(-c2nn3c(c2-c2ccc4ncnn4c2/C=C/C(N)=O)CCC3)n1
clearance [1]: 9.29 mL/min/kg
Drug metabolism [2]: metabolite_detected
Activity [3]: Non-toxic
CLint scaled at […], 1 µM [4]: 50 mL/min/kg
efflux ratio at 2.5 h, 2 µM (MDR1): 70.7
Cmax [5]: 24233 nM/ml
inhibition (Mus musculus): Active; Observed A Significant Decline In Phosphorylated Smad3 Protein At 1 H But Nearly Absent At […] Hrs
logD [6]: 1.36
solubility kinetic [7]: 185 µM (≈ 71.5 µg/mL)
bioavailability [8]: 29.9%
pIC50 (NIH3T3): 6.14
AUClast [9]: 9614 nM.hr/ml
Activity [10]: < 50%
inhibition in vivo at 15 mg/kg (H22 [11]): 50.8%
half-life [12]: 2.01 h
pIC50 (Cytochrome P450 2D6): < 4.00
inhibition in vivo at 50 mg/kg (H22 [13]): 57.5%
Drug metabolism [14]: metabolite_detected
Activity [15]: < 50%
inhibition in vivo at 50 mg/kg (CT26): 79.4%
Papp A→B at 2.5 h, 2 µM [16]: 0.39 ×10⁻⁶ cm/s
Drug metabolism [17]: metabolite_detected
Activity [18]: Non-toxic
Activity [19]: Non-toxic
Drug metabolism [20]: metabolite_detected
remaining at 1 µM [21]: 20.7%
fraction unbound at 4 h, up to 10 µM [22]: 0.376
Drug metabolism [23]: metabolite_detected
